{"source": "ChEMBL document CHEMBL1145005", "about": "(J Med Chem, 2003)", "key": {"[1]": {"biological_target": "Aldo-keto reductase family 1 member B1 (Homo sapiens, UniProt P15121)", "test": "Inhibition of human recombinant Aldose reductase […]"}, "[2]": {"test_system": "Rattus norvegicus", "test": "Aldose reductase inhibition activity in vivo by normalizing the elevated nerve sorbitol levels in sciatic nerve of acutely diabetic rat at 300 mg/kg", "type": "functional"}, "[3]": {"test_system": "Rattus norvegicus", "test": "Aldose reductase inhibition activity in vivo by normalizing the elevated nerve fructose levels in sciatic nerve of acutely diabetic rat at 300 mg/kg", "type": "functional"}, "[4]": {"test": "pKa value of compound was determined", "type": "physicochemical"}, "[5]": {"test": "Dissociation constant was determined", "type": "physicochemical"}, "[6]": {"test_system": "Rattus norvegicus", "test": "Aldose reductase inhibition activity in vivo by normalizing the elevated nerve sorbitol levels in sciatic nerve of acutely diabetic rat at 20 mg/kg", "type": "functional"}, "[7]": {"test_system": "Rattus norvegicus", "test": "Aldose reductase inhibition activity in vivo by normalizing the elevated nerve fructose levels in sciatic nerve of acutely diabetic rat at 20 mg/kg", "type": "functional"}, "[8]": {"test_system": "Rattus norvegicus", "test": "Aldose reductase inhibition activity in vivo by normalizing the elevated lens sorbitol levels in sciatic nerve of acutely diabetic rat at 20 mg/kg", "settings": "read-out: Inhibition"}, "[9]": {"organism": "Rattus norvegicus", "test": "Effective dose to inhibit aldose reductase activity by normalizing the elevated nerve fructose levels in sciatic nerve of chronically diabetic rat"}, "[10]": {"organism": "Rattus norvegicus", "test": "Effective dose to inhibit aldose reductase activity by normalizing the elevated nerve sorbitol levels in sciatic nerve of chronically diabetic rat"}, "[11]": {"test_system": "Rattus norvegicus", "test": "Aldose reductase inhibition activity in vivo by normalizing the elevated nerve fructose levels in sciatic nerve of acutely diabetic rat at 10 mg/kg", "type": "functional"}, "[12]": {"test_system": "Rattus norvegicus", "test": "Aldose reductase inhibition activity in vivo by normalizing the elevated nerve sorbitol levels in sciatic nerve of acutely diabetic rat at 10 mg/kg", "type": "functional"}, "[13]": {"test": "Partition coefficient (logP)", "type": "physicochemical", "settings": "octanol/water"}, "[14]": {"test": "Log P / Log D value was determined", "type": "physicochemical", "settings": "octanol/water"}, "[15]": {"test": "Maximum concentration of drug in plasma was determined at 2 mg/kg orally", "type": "ADME, organism-based", "set-up": "dose 2 mg/kg, route oral", "settings": "in vivo, po"}, "[16]": {"test": "Log D value at pH 7.4", "type": "physicochemical", "settings": "buffer"}, "[17]": {"test_system": "Rattus norvegicus", "test": "Effective dose to inhibit aldose reductase activity by normalizing the elevated lens sorbitol levels in sciatic nerve of chronically diabetic rat orally", "type": "functional", "settings": "po"}, "[18]": {"test": "Plasma t1/2 of compound was determined in diabetic rat", "type": "ADME, organism-based"}, "[19]": {"test": "Oral bioavailability in rat", "type": "ADME, organism-based", "settings": "in vivo, read-out: Bioavailability_oral"}, "[20]": {"test_system": "Rattus norvegicus", "test": "Effective dose to inhibit aldose reductase activity by normalizing the elevated lens fructose levels in sciatic nerve of chronically diabetic rat orally", "type": "functional", "settings": "po"}}}
{"smiles": "O=c1ccc(S(=O)(=O)c2ccc(Br)cc2F)n[nH]1", "values": [{"measurement": "IC50", "setting": "[1]", "value": 140, "unit": "nM"}]}
{"smiles": "O=S(=O)(c1ccccc1)c1ccc(O)nn1", "values": [{"measurement": "inhibition in vivo at 300 mg/kg", "setting": "[2]", "value": 95, "unit": "%"}, {"measurement": "inhibition in vivo at 300 mg/kg", "setting": "[3]", "value": 89, "unit": "%"}, {"measurement": "IC50", "setting": "[1]", "value": 600, "unit": "nM"}, {"measurement": "pKa", "setting": "[4]", "value": 7.1}]}
{"smiles": "O=C1NC(=O)[C@@]2(CCOc3ccc(F)cc32)N1", "note": "[SORBINIL]", "values": [{"measurement": "pKa", "setting": "[5]", "value": "> 8"}]}
{"smiles": "O=c1ccc(S(=O)(=O)c2ccccc2Cl)n[nH]1", "values": [{"measurement": "inhibition in vivo at 20 mg/kg", "setting": "[6]", "value": 96, "unit": "%"}, {"measurement": "IC50", "setting": "[1]", "value": 170, "unit": "nM"}, {"measurement": "inhibition in vivo at 20 mg/kg", "setting": "[7]", "value": 68, "unit": "%"}]}
{"smiles": "O=S(=O)(c1ccc(O)nn1)c1ccccc1-c1ccccc1", "values": [{"measurement": "IC50", "setting": "[1]", "value": 2200, "unit": "nM"}]}
{"smiles": "O=c1ccc(S(=O)(=O)c2cc3ccccc3o2)n[nH]1", "values": [{"measurement": "IC50", "setting": "[1]", "value": 150, "unit": "nM"}]}
{"smiles": "O=C(O)Cc1nn(Cc2nc3cc(C(F)(F)F)ccc3s2)c(=O)c2ccccc12", "note": "[ZOPOLRESTAT]", "values": [{"measurement": "inhibition in vivo at 20 mg/kg", "setting": "[8]", "value": 41, "unit": "%"}, {"measurement": "pKa", "setting": "[4]", "value": 3}, {"measurement": "ED90", "setting": "[9]", "value": 40, "unit": "mg/kg"}, {"measurement": "ED90", "setting": "[10]", "value": 10, "unit": "mg/kg"}]}
{"smiles": "O=c1ccc(S(=O)(=O)c2ccc(Cl)cc2Cl)n[nH]1", "values": [{"measurement": "IC50", "setting": "[1]", "value": 190, "unit": "nM"}, {"measurement": "inhibition in vivo at 10 mg/kg", "setting": "[11]", "value": 73, "unit": "%"}, {"measurement": "inhibition in vivo at 10 mg/kg", "setting": "[12]", "value": 95, "unit": "%"}, {"measurement": "ED90", "setting": "[9]", "value": 20, "unit": "mg/kg"}, {"measurement": "ED90", "setting": "[10]", "value": 5, "unit": "mg/kg"}]}
{"smiles": "Cc1ccc(S(=O)(=O)c2ccc(O)nn2)cc1", "values": [{"measurement": "IC50", "setting": "[1]", "value": 1900, "unit": "nM"}]}
{"smiles": "O=c1ccc(S(=O)(=O)c2cc3ccccc3s2)n[nH]1", "values": [{"measurement": "IC50", "setting": "[1]", "value": 150, "unit": "nM"}]}
{"smiles": "COc1ccc(S(=O)(=O)c2ccc(=O)[nH]n2)cc1", "values": [{"measurement": "IC50", "setting": "[1]", "value": 2000, "unit": "nM"}]}
{"smiles": "O=c1ccc(S(=O)(=O)c2cc3ccccc3[nH]2)n[nH]1", "values": [{"measurement": "IC50", "setting": "[1]", "value": 5000, "unit": "nM"}]}
{"smiles": "O=c1ccc(S(=O)(=O)c2ccccc2Br)n[nH]1", "values": [{"measurement": "IC50", "setting": "[1]", "value": 210, "unit": "nM"}]}
{"smiles": "Cc1c(S(=O)(=O)c2ccc(=O)[nH]n2)oc2ccc(Cl)cc12", "values": [{"measurement": "logP", "setting": "[13]", "value": 3.05}, {"measurement": "Log P/Log D", "setting": "[14]", "value": 0.81}, {"measurement": "Cmax", "setting": "[15]", "value": 9000, "unit": "ng/mL"}, {"measurement": "logD", "setting": "[16]", "value": 2.46}, {"measurement": "ED90", "setting": "[17]", "value": 0.8, "unit": "mg/kg"}, {"measurement": "half-life", "setting": "[18]", "value": 26, "unit": "h"}, {"measurement": "IC50", "setting": "[1]", "value": 0.84, "unit": "nM"}, {"measurement": "bioavailability", "setting": "[19]", "value": 98, "unit": "%"}, {"measurement": "ED90", "setting": "[20]", "value": 3, "unit": "mg/kg"}]}
{"smiles": "O=c1ccc(S(=O)(=O)c2ccc(F)cc2Cl)n[nH]1", "values": [{"measurement": "IC50", "setting": "[1]", "value": 280, "unit": "nM"}, {"measurement": "inhibition in vivo at 10 mg/kg", "setting": "[11]", "value": 46, "unit": "%"}, {"measurement": "inhibition in vivo at 10 mg/kg", "setting": "[12]", "value": 91, "unit": "%"}]}
{"smiles": "O=S(=O)(c1ccc(O)nn1)c1nc2ccccc2s1", "values": [{"measurement": "IC50", "setting": "[1]", "value": 450, "unit": "nM"}]}
